Consider four compounds from PMC11249626, “Fluorophore-Labeled Pyrrolones Targeting the Intracellular Allosteric Binding Site of the Chemokine Receptor CCR1” (ACS Pharmacology & Translational Science, 2024).

The target of one experiment is T1, CCR2 (Homo sapiens, UniProt P41597).
T1 construct: host or cells: HEK293T, transient
T1 sequence (P41597 1-360 isoform P41597-2): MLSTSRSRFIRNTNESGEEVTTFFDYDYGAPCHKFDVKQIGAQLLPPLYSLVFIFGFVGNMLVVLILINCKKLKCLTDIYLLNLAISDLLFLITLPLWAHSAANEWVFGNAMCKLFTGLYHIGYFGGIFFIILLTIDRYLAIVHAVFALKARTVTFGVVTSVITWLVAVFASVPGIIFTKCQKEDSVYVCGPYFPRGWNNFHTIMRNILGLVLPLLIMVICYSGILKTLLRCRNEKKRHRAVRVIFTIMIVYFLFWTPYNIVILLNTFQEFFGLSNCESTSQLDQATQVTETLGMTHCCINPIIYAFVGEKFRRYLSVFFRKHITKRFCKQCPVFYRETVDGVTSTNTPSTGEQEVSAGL
Further details: method as in PMID 35838163. Conditions: membrane-based setup; cited from earlier work.

Another experiment concerns the target T2, CCR1 (Homo sapiens, UniProt P32246).
T2 sequence (P32246 1-355): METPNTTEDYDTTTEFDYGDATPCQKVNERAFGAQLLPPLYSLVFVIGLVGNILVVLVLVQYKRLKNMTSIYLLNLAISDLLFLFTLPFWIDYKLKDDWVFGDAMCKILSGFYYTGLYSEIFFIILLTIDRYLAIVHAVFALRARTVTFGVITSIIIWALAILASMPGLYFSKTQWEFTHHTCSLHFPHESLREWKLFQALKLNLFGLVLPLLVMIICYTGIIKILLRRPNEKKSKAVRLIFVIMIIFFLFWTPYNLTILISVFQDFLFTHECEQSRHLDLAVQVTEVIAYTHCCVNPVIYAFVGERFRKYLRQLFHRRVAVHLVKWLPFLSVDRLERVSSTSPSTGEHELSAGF
Briefly: Membrane-based NanoBRET saturation binding assay, CCR1_Nluc membranes from HEK293T cells. On the set-up: Promega pNLF1-C (Nluc) #CCR010TN00; host or cells: HEK293T, transient (PEI). Conditions: saturation binding of fluorescent ligand, read-out: KD (equilibrium, KD(eq.)). An excerpt: To evaluate the CCR1 affinity of previously reported (8–9) and new fluorescently labeled pyrrolones (11–12), we developed a NanoBRET-based binding assay (Figures 4A–H and S2A–J). To this end, we used a previously reported CCR1 construct (hereafter referred to as CCR1_Nluc) with a small and bright luciferase variant (nanoluciferase,[52] Nluc), fused to the intracellular C-terminus of CCR1 (Figures 4A and S2A).[47] […] This was expected, given the very low CCR2/CCR1 selectivity of the parental ligands 4 and 5 (Figure 1).[33] For further studies, we selected 12 due to its highest CCR1 affinity.
Cell culture: HEK293T cells were cultured as previously described.8 In brief, HEK293T cells (gift from Chair of Physiology, Prof. Dr. Alzheimer, FAU Erlangen-Nürnberg) were grown on 10 cm culture dishes at 37 °C and 5% CO2. As growth medium, Dulbecco's Modified Eagle Medium (DMEM)/F12 (Invitrogen) supplemented with 10% fetal bovine serum (FBS, Gibco™ Fetal Bovine Serum, qualified, Brazil), L-glutamine (final concentration: 2 mM; from Gibco™ L-glutamine 200 mM, 100X), penicillin (final concentration: 100 units/mL), and streptomycin (final concentration: 100 µg/mL; from Gibco™ Penicillin-Streptomycin 10,000 U/mL) was used. Cells were split every three to four days and regularly confirmed to be free of mycoplasma contamination using the luminescence-based MycoAlert Plus Kit (Lonza).
Transient transfection using polyethylenimine: For transfection, we used a previously published procedure.8 In brief, HEK293T cells were plated onto culture dishes (Ø 10 cm or Ø 15 cm) and grown to a confluence of approximately 50% at 37 °C and 5% CO2. The growth medium was renewed one-hour before transfection. The transfection mix was prepared, as described in the following. Solution A (0.4-2.2% total DNA (1-5.5 µg) in Gibco™ phosphate buffered saline, pH 7.4) and solution B (3% PEI (linear, 25 kDa, from Polysciences) solution prepared from a PEI stock solution (0.4 µg/µL) in PBS without MgCl2 and CaCl2) were mixed one to one, the resulting mixture was vortexed for 5 s and incubated for 30 min at room temperature. The pre-incubated transfection mix was added dropwise to the cells and cell cultivation was continued […]
Membrane preparation: Membranes were prepared as previously reported.8 In brief, membranes from HEK293T cells transiently expressing the respective GPCR were prepared as follows. The medium of the transfected cells was refreshed after 24 h before cells were harvested 48 h post-transfection. […]
Finally, the protein concentration was determined using the Lowry method.9 cDNA constructs: The CCR1-Nluc fusion construct (CCR1_Nluc) in pcDNA3.1 was generated as previously reported1 using the Gibson Assembly10 (New England Biolabs) method. […]
(BRET reads energy transfer from a luciferase to a nearby fluorophore.)

Experiment [1] has as its target T3, human chemokine receptor CCR2 (Homo sapiens, UniProt P41597).
T3 construct: expressed in transfected cells; host or cells: HEK293T, transient
Briefly: Cellular NanoBiT β-arrestin recruitment assay. The experiment is classed as cell-based. Conditions: n = 1; read-out: EC50, β-arrestin-2 recruitment, CCR2 activation. The procedure: (PerkinElmer, Groningen, NL).
(§1) Cellular NanoBiT β-arrestin recruitment assays: Chemokine-induced β-arrestin-2 recruitment to chemokine receptors CCR1 and CCR2 was monitored using a nanoluciferase complementation -based assay (NanoBiT, Promega). 17-19 5 x 10^6 HEK293T cells were plated in 10 cm dishes and cultured for 24 h before transfection with vectors encoding for the human chemokine receptor CCR1 or CCR2 C-terminally fused with SmBiT and β-arrestin 2 N-terminally fused with LgBiT. 24 h after transfection cells were harvested, distributed into white 96-well plates (5 × 10^4 cells per well) and incubated for 1 h at 37 °C with compound 23 at concentrations ranging from 10 nM to 10 µM. The endogenous chemokine ligand CCL5 (3 nM, for CCR1) or CCL2 (10 nM, for CCR2) was then added, and luminescence generated upon nanoluciferase complementation in the presence of coelenterazine H was measured with a Mithras LB940 luminometer (Berthold Technologies) for 20 min. […]
(§2) Finally, the top 5% of the identified hits were subsequently docked to a homology model of CCR1 (vide infra). After visual examination of the obtained binding modes 24 hit compounds were identified for further investigation .
(§3) Molecular docking: For the docking studies in the course of our virtual screening campaign, the CCR1 protein was […]
(§4) 27, 28 CCR1 structure was optimized using the Quickprep and structure preparation wizard in MOE 24 using CHARMM27 forcefield. The protein was saved in mol2 format and loaded in GOLD.25, 26 The amino acids defining the IABS were listed in a text file to define the docking cavity. 50 GA runs were performed for docking CCR2-RA-[R] (4-[R]) and SN_12 (43), with the generated solutions clustered based on their RMSD with the threshold set to 0.75 Å using the complete linkage method. Docking runs were performed using ChemScore. […]
(Recruitment of arrestin is a read-out of receptor activation apart from second messengers.)

Experiment [2] has as its target T4, human chemokine receptor CCR1 (Homo sapiens, UniProt P32246).
T4 construct: expressed in transfected cells; host or cells: HEK293T, transient
T4 sequence (P32246 1-355): T2 sequence (P32246 1-355)
Briefly: Cellular NanoBiT miniGi recruitment assay. It counts as cell-based. Conditions: n = 3; read-out: EC50, miniGi recruitment, CCR1 activation. The procedure: Technologies) for 20 min.
Cellular NanoBiT miniGi recruitment assay s: Chemokine-induced Gi recruitment to the chemokine receptor CCR1 was monitored using a nanoluciferase complementation -based assay (NanoBiT, Promega). 20 5 x 10^6 HEK293T cells were plated in 10 cm dishes and cultured for 24 h before transfection with vectors encoding for the human chemokine receptor CCR1 C-terminally fused with SmBiT and miniGi (mG, engineered GTPase domain of Gα subunit) N-terminally fused with LgBiT. 24 h after transfection cells were harvested, distributed into white 96 -well plates (5 × 10^4 cells per well) and incubated for 1 h at 37 °C with compound 23 at concentrations ranging from 10 nM to 100 µM. The endogenous chemokine ligand CCL5 (3 nM, for CCR1) was then added, and luminescence generated upon nanoluciferase complementation in the presence of coelenterazine H was measured with a Mithras LB940 luminometer (Berthold Technologies) for 20 min. […]
as §2, §3, §4

Experiment [3] addresses T4, human chemokine receptor CCR1. Briefly: Cellular NanoBiT β-arrestin recruitment assay. The note with it: n = 3; read-out: EC50, β-arrestin-2 recruitment, CCR1 activation. The experiment is classed as cell-based. The procedure: as §1, with “CCR1” for “Cellular NanoBiT β-arrestin recruitment assays: Chemokine-induced β-arrestin-2 recruitment to chemokine receptors CCR1”
as §2, §3
27, 28 CCR1 structure was optimized using the Quickprep and structure preparation wizard in MOE 24 using CHARMM27 forcefield. The protein was saved in mol2 format and loaded in GOLD.25, 26 The amino acids defining the IABS were listed in a text file to define the docking cavity. 50 GA runs were performed for docking CCR2-RA-[R] (4-[R]) and SN_12 (43), with the generated solutions clustered based on their RMSD with the threshold set to 0.75 Å using the complete linkage method. Docking runs were performed using ChemScore. Flexibility of amino acids Lys63ICL1, Arg1313.50, Leu2406.36 and Arg3078.49 was taken in consideration in the docking runs, with conformational sampling of their side chains being done by the rotamer libraries implemented in GOLD.25, 26 For the docking studies with our ligand-linker conjugates (Figure S1), molecular ligand structures were geometry optimized as neutral molecules by means of Avogadro (Version 1.2.0)29 using the Universal Force Field (UFF) and the Steepest Decent Algorithm until convergence (ΔE = 0).
CCR113 was used for docking. The compounds were docked by means of AutoDock Vina 1.1.2.30, 31 An exhaustiveness value of 8 and a search space of 22 x 22 x 22 Å³ was applied around the unliganded intracellular allosteric binding site of CCR1. Twenty docking poses were generated for each ligand and inspected manually and according to the docking score.

T3 sequence (P41597 whole entry): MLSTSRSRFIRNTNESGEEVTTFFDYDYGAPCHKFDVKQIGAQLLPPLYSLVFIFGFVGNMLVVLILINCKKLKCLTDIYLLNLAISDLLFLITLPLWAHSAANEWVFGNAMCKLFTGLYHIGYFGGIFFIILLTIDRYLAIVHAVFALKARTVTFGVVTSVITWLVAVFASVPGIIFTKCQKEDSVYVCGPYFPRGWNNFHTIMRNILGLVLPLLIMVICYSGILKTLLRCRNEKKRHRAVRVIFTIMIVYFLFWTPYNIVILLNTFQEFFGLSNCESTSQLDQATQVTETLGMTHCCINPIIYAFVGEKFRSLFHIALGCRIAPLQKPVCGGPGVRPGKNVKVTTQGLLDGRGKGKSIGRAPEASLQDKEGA

As for `CN(C)c1ccc2c(-c3cc(C(=O)NCc4cn(CCCC(=O)C5=C(O)C(=O)N(c6ccc(Cl)cc6F)C5C5CCCCC5)nn4)ccc3C(=O)[O-])c3ccc(=[N+](C)C)cc-3oc2c1` (stereo not shown) [compound 8], the Kd (in general, the free concentration of one partner at which half of the binding sites on the other are occupied at equilibrium, for simple one-to-one binding) at CCR2 is 2260 nM; on CCR1 it was 11300 ± 800 nM. With `CN(C)c1ccc2c(-c3cc(C(=O)NCc4cn(CCCC(=O)C5=C(O)C(=O)N(c6ccc(Br)cc6F)C5C5CCCCC5)nn4)ccc3C(=O)[O-])c3ccc(=[N+](C)C)cc-3oc2c1` (stereo not shown) [compound 9], the Kd was 2270 nM at CCR2 and 14900 ± 2100 nM at CCR1. Consider “CCL2: endogenous chemokine ligand, CCR2 agonist”, for which the concentration giving a half-maximal response (EC50) (as a rule, the concentration at which the effect is half-maximal) in experiment [1] is 7.43 nM. For the compound “CCL5: endogenous chemokine ligand, CCR1 agonist”, the EC50 amounted to 2.93 nM in experiment [2] and 1.01 nM in experiment [3].
